Assay type in all cases: in vivo
For one assay, the system named is Septoria tritici. Kind of assay: Test C: wheat leaf blotch, preventive spray on wheat seedlings, visual disease rating. The settings on record: 100 = 100% disease control, 0 = no disease control relative to controls; for pest or weed control at 40 ppm / pest or weed control at 200 ppm: Zymoseptoria tritici, 504 h. From the text: General protocol for preparing test suspensions for Tests A-F: […] The resulting test suspensions were then used in Tests A-F. The test suspensions were sprayed to the point of run-off on the test plants. All results are for 200 ppm (equivalent to a rate of 500 g/ha) except where followed by “*” which indicates 40 ppm. The test suspension was sprayed to the point of run-off on wheat seedlings. The following day the seedlings were inoculated with a spore suspension of Septoria tritici (the causal agent of wheat leaf blotch) and incubated in saturated atmosphere at 20° C. for 48 h, and moved to a growth chamber at 20° C. for 19 additional days, after which time visual disease ratings were made. […] A dash (-) indicates no test results. All results are for 200 ppm except where followed by “*”, which indicates 40 ppm.

For another assay, the system named is Alternaria solani. Kind of assay: Test E: tomato early blight, preventive spray on tomato seedlings, visual disease rating. The settings on record: 100 = 100% disease control, 0 = no disease control relative to controls; for pest or weed control at 40 ppm / pest or weed control at 200 ppm: Alternaria solani. The text has this:
General protocol for preparing test suspensions for Tests A-F: […] The resulting test suspensions were then used in Tests A-F. The test suspensions were sprayed to the point of run-off on the test plants. All results are for 200 ppm (equivalent to a rate of 500 g/ha) except where followed by “*” which indicates 40 ppm. The test suspension was sprayed to the point of run-off on tomato seedlings. […] A dash (-) indicates no test results. All results are for 200 ppm except where followed by “*”, which indicates 40 ppm.

The test system of another assay is Erysiphe graminis. The assay can be described thus: Test A: wheat powdery mildew, preventive spray on wheat seedlings, visual disease rating. To be noted: 100 = 100% disease control, 0 = no disease control relative to controls; for pest or weed control at 40 ppm / pest or weed control at 200 ppm: Blumeria graminis, 192 h. The text has this:
General protocol for preparing test suspensions for Tests A-F: […] The resulting test suspensions were then used in Tests A-F. The test suspensions were sprayed to the point of run-off on the test plants. All results are for 200 ppm (equivalent to a rate of 500 g/ha) except where followed by “*” which indicates 40 ppm. The test suspension was sprayed to the point of run-off on wheat seedlings. The following day the seedlings were inoculated with a spore dust of Erysiphe graminis, (the causal agent of wheat powdery mildew) and incubated in a growth chamber at 20° C. for 8 days, after which time visual disease ratings were made. […] A dash (-) indicates no test results. All results are for 200 ppm except where followed by “*”, which indicates 40 ppm.

Assay [1] deals with Puccinia recondita f. sp. tritici. The assay can be described thus: Test B: wheat leaf rust, preventive spray on wheat seedlings, visual disease rating. The settings on record: 100 = 100% disease control, 0 = no disease control relative to controls; for pest or weed control at 40 ppm / pest or weed control at 200 ppm: 192 h. The text has this: General protocol for preparing test suspensions for Tests A-F: […] The resulting test suspensions were then used in Tests A-F. The test suspensions were sprayed to the point of run-off on the test plants. All results are for 200 ppm (equivalent to a rate of 500 g/ha) except where followed by “*” which indicates 40 ppm. The test suspension was sprayed to the point of run-off on wheat seedlings. The following day the seedlings were inoculated with a spore suspension of Puccinia recondita f. sp. tritici (the causal agent of wheat leaf rust) and incubated in a saturated atmosphere at 20° C. for 24 h, and then moved to a growth chamber at 20° C. for 7 days, after which time visual disease ratings were made. […] A dash (-) indicates no test results. All results are for 200 ppm except where followed by “*”, which indicates 40 ppm.

The test system of another assay is Septoria nodorum. The assay can be described thus: Test D: wheat glume blotch, preventive spray on wheat seedlings, visual disease rating. The settings on record: 100 = 100% disease control, 0 = no disease control relative to controls; for pest or weed control at 40 ppm / pest or weed control at 200 ppm: Parastagonospora nodorum. The text has this: General protocol for preparing test suspensions for Tests A-F: […] The resulting test suspensions were then used in Tests A-F. The test suspensions were sprayed to the point of run-off on the test plants. All results are for 200 ppm (equivalent to a rate of 500 g/ha) except where followed by “*” which indicates 40 ppm. The test suspension was sprayed to the point of run-off on wheat seedlings. The following day the seedlings were inoculated with a spore suspension of Septoria nodorum (the causal agent of wheat glume blotch) and incubated in a saturated atmosphere at 20° C. for 48 h, and then moved to a growth chamber at 20° C. for 7 days, after which time visual disease ratings were made. […] A dash (-) indicates no test results. All results are for 200 ppm except where followed by “*”, which indicates 40 ppm.

In a further assay the test system is Botrytis cinerea. The assay can be described thus: Test F: tomato Botrytis, preventive spray on tomato seedlings, visual disease rating. The settings on record: 100 = 100% disease control, 0 = no disease control relative to controls; for pest or weed control at 40 ppm / pest or weed control at 200 ppm: Botrytis cinerea. The text has this: General protocol for preparing test suspensions for Tests A-F: […] The resulting test suspensions were then used in Tests A-F. The test suspensions were sprayed to the point of run-off on the test plants. All results are for 200 ppm (equivalent to a rate of 500 g/ha) except where followed by “*” which indicates 40 ppm. The test suspension was sprayed to the point of run-off on tomato seedlings. The following day the seedlings were inoculated with a spore suspension of Botrytis cinerea (the causal agent of tomato Botrytis) and incubated in saturated atmosphere at 20° C. for 48 h, and then moved to a growth chamber at 24° C. for 3 days, after which time visual disease ratings were made. […] A dash (-) indicates no test results. All results are for 200 ppm except where followed by “*”, which indicates 40 ppm.

Experimental findings from patent US20110136762A1, “FUNGICIDAL PYRIDAZINES” (E.I. Du Pont de Nemours and Company, priority 2008, published 2011) are described below.

Marks after values point to notes of the source that are not given here.

For the molecule `COc1cc(OC)cc(-c2c(-c3ccccc3F)nnc(Cl)c2-c2c(F)cc(F)c([Si](C)(C)C)c2F)c1` [Compound 38, 3-chloro-5-(3,5-dimethoxyphenyl)-6-(2-fluorophenyl)-4-[2,4,6-trifluoro-3-(trimethylsilyl)phenyl]pyridazine], the pest or weed control at 40 ppm with Septoria tritici (40 ppm (marked *)) was 94%; in the assay on Alternaria solani (40 ppm (marked *)) it was 26%; in the assay with Erysiphe graminis (40 ppm (marked *)), 0%; in assay [1] (40 ppm (marked *)), 98%; with Septoria nodorum (40 ppm (marked *)) it was 0%; in the assay with Botrytis cinerea (40 ppm (marked *)), 99%.

As for `Fc1cncc(-c2c(-c3ccccc3F)nnc(Cl)c2-c2c(F)cc(F)cc2F)c1` [Compound 39], in the assay on Septoria tritici (40 ppm (marked *)), the “Test C rating (disease control, wheat leaf blotch)” value (from here on “Test C rating”) is listed as 100* %. In addition, in the assay with Alternaria solani (40 ppm (marked *)), the “Test E rating (disease control, tomato early blight)” value (“Test E rating” below) was 100* %. The “Test A rating (disease control, wheat powdery mildew)” value (shortened to “Test A rating”) in the assay on Erysiphe graminis (40 ppm (marked *)) is given as 100* %. For the same molecule, the “Test B rating (disease control, wheat leaf rust)” value (“Test B rating” for short) in assay [1] (40 ppm (marked *)) is reported as 100* %. Besides, the “Test D rating (disease control, wheat glume blotch)” value (“Test D rating” below) in the assay on Septoria nodorum (40 ppm (marked *)) is listed as 100* %. Moreover, the “Test F rating (disease control, tomato Botrytis)” value (shortened to “Test F rating”) in the assay with Botrytis cinerea (40 ppm (marked *)) is 100* %.

Turning to `COc1cc(OC)cc(-c2c(-c3ccccc3)n[n+]([O-])c(C)c2-c2ccc(F)cc2)c1` [Compound 12, 4-(3,5-dimethoxyphenyl)-5-(4-fluorophenyl)-6-methyl-3-phenylpyridazine 1-oxide], the pest or weed control at 200 ppm came out at 99% in the assay with Septoria tritici (200 ppm); 94% with Alternaria solani (200 ppm); 62% with Erysiphe graminis (200 ppm); 100% in assay [1] (200 ppm); 0% in the assay on Septoria nodorum (200 ppm); 100% in the assay with Botrytis cinerea (200 ppm).

For `COc1cc(OC)cc(-c2c(-c3ccccc3F)nnc(Cl)c2-c2c(F)cc(F)cc2F)c1` [Compound 45, 3-chloro-5-(3,5-dimethoxyphenyl)-6-(2-fluorophenyl)-4-(2,4,6-trifluorophenyl)pyridazine], the pest or weed control at 40 ppm amounted to 99% in the assay with Septoria tritici (40 ppm (marked *)); 100% in the assay on Alternaria solani (40 ppm (marked *)); 100% in the assay with Erysiphe graminis (40 ppm (marked *)); 100% in assay [1] (40 ppm (marked *)); 100% with Septoria nodorum (40 ppm (marked *)); 100% in the assay with Botrytis cinerea (40 ppm (marked *)).

For the molecule `COc1cc(-c2c(-c3ccccc3F)nnc(C)c2-c2c(F)cc(F)cc2F)cc(OC)c1Cl` [Compound 33], the “Test C rating” value in the assay with Septoria tritici (40 ppm (marked *)) is 95* %. In addition, the “Test E rating” value in the assay on Alternaria solani (40 ppm (marked *)) is recorded as 61* %. Moreover, the “Test A rating” value with Erysiphe graminis (40 ppm (marked *)) is recorded as 0* %. Also, the “Test B rating” value in assay [1] (40 ppm (marked *)) was 97* %. The “Test D rating” value with Septoria nodorum (40 ppm (marked *)) was 0* %. For the same molecule, in the assay with Botrytis cinerea (40 ppm (marked *)), the “Test F rating” value is on record as 99* %.

Regarding `COc1cc(OC)cc(-c2c(-c3ccccc3F)nnc(C)c2-c2ccc(F)cc2F)c1` [Compound 15, 4-(2,4-difluorophenyl)-5-(3,5-dimethoxyphenyl)-6-(2-fluorophenyl)-3-methylpyridazine], the pest or weed control at 200 ppm came out at 99% in the assay with Septoria tritici (200 ppm); 100% in the assay with Alternaria solani (200 ppm); 100% in the assay on Erysiphe graminis (200 ppm); 100% in assay [1] (200 ppm); 98% in the assay on Septoria nodorum (200 ppm); 98% in the assay with Botrytis cinerea (200 ppm).

Consider `Cc1nnc(-c2ccccc2F)c(-c2cccc(F)c2)c1-c1c(F)cc(F)cc1F` [Compound 25, 3-(2-fluorophenyl)-4-(3-fluorophenyl)-6-methyl-5-(2,4,6-trifluorophenyl)pyridazine], for which the pest or weed control at 200 ppm was determined as 96% in the assay with Septoria tritici (200 ppm); 100% in the assay with Alternaria solani (200 ppm); 99% in the assay on Erysiphe graminis (200 ppm); 100% in assay [1] (200 ppm); 100% with Septoria nodorum (200 ppm); 98% in the assay on Botrytis cinerea (200 ppm).

Regarding `COc1cc(OC)cc(-c2c(-c3ccccc3F)nnc(C)c2-c2c(F)cc(F)cc2F)c1` [Compound 24, 4-(3,5-dimethoxyphenyl)-3-(2-fluorophenyl)-6-methyl-5-(2,4,6-trifluorophenyl)pyridazine], the pest or weed control at 200 ppm amounted to 96% in the assay on Septoria tritici (200 ppm); 100% with Alternaria solani (200 ppm); 100% with Erysiphe graminis (200 ppm); 100% in assay [1] (200 ppm); 100% in the assay on Septoria nodorum (200 ppm); 94% in the assay with Botrytis cinerea (200 ppm).

Take `C=C(C)c1nnc(C)c(-c2c(F)cccc2F)c1-c1cc(OC)cc(OC)c1` [Compound 21]: in the assay with Septoria tritici (40 ppm (marked *)), the “Test C rating” value is listed as 98* %. In the assay with Alternaria solani (40 ppm (marked *)), the “Test E rating” value is 98* %. In addition, in the assay with Erysiphe graminis (40 ppm (marked *)), the “Test A rating” value is 94* %. Further, the “Test B rating” value in assay [1] (40 ppm (marked *)) is recorded as 99* %. Further, the “Test D rating” value in the assay with Septoria nodorum (40 ppm (marked *)) is 0* %. Moreover, the “Test F rating” value in the assay with Botrytis cinerea (40 ppm (marked *)) is listed as 98* %.

Regarding `COc1cc(OC)c(Cl)c(-c2c(-c3ccccc3F)nnc(C)c2-c2c(F)cc(F)cc2F)c1` [Compound 31, 4-(2-chloro-3,5-dimethoxyphenyl)-3-(2-fluorophenyl)-6-methyl-5-(2,4,6-trifluorophenyl)pyridazine], the pest or weed control at 40 ppm in the assay with Septoria tritici (40 ppm (marked *)) is 99%; in the assay on Alternaria solani (40 ppm (marked *)), 100%; in the assay on Erysiphe graminis (40 ppm (marked *)) it was 97%; in assay [1] (40 ppm (marked *)), 100%; in the assay on Septoria nodorum (40 ppm (marked *)), 100%; in the assay on Botrytis cinerea (40 ppm (marked *)), 100%.

Regarding `COc1cc(OC)cc(-c2c(-c3ccc(F)cc3F)cnnc2-c2ccccc2F)c1` [Compound 16], the “Test C rating” value in the assay with Septoria tritici (200 ppm) was 70%. The “Test E rating” value in the assay on Alternaria solani (200 ppm) came to 0%. In addition, the “Test A rating” value in the assay with Erysiphe graminis (200 ppm) is 0%. In assay [1] (200 ppm), the “Test B rating” value is on record as 96%. In addition, the “Test D rating” value in the assay on Septoria nodorum (200 ppm) worked out at 0%. In addition, the “Test F rating” value in the assay with Botrytis cinerea (200 ppm) was 99%.

As to `C=C(C)c1nnc(C)c(-c2ccc(F)cc2F)c1-c1cc(OC)cc(OC)c1` [Compound 20], the “Test C rating” value in the assay with Septoria tritici (200 ppm) is listed as 96%. In addition, the “Test E rating” value in the assay with Alternaria solani (200 ppm) amounted to 100%. The “Test A rating” value in the assay on Erysiphe graminis (200 ppm) is reported as 96%. In assay [1] (200 ppm), the “Test B rating” value is reported as 100%. For the same molecule, the “Test D rating” value in the assay with Septoria nodorum (200 ppm) was found to be 0%. For the same molecule, in the assay with Botrytis cinerea (200 ppm), the “Test F rating” value came to 99%.
